Laboratory results as given in patent US20200024278A1, “COMPOSITION COMPRISING ANTIBIOTIC COMPOUND AND AN HETEROCYCLIC COMPOUND AND THEIR USE IN PREVENTING OR TREATING BACTERIAL INFECTIONS” (MUTABILIS, priority 2016, published 2020).

Key:
Assay in all cases: MIC, broth microdilution (CLSI), substance alone or ATB combined with compound at 4 or 8 μg/mL
Assay type in all cases: cell-based, A. baumannii
[1] = system: ABA UFR161
Experimental: (§1) Compounds of the present invention were assessed against genotyped bacterial strains alone or in combination with an antibacterial. In the assays, MICs of said compounds or combination of antibiotics with fixed concentrations of said compounds (4 or 8 μg/mL) were determined by the broth microdilution method according to the Clinical Laboratory Standards Institute (CLSI-M7-A7). Briefly, compounds alone according to the invention were prepared in DMSO and spotted (2 μL each) on sterile polystyrene plates (Corning, 3788). Combinations of compounds and antibiotics dilutions were prepared in DMSO and spotted (1 μL each) on sterile polystyrene plates (Corning, 3788). Log phase bacterial suspensions were adjusted to a final density of 5·10^5 CFU/mL in cation-adjusted Mueller-Hinton broth (ca-MHB; Becton-Dickinson and Company) and added to each well (98 μL). Assays including Fosfomycin were supplemented with 25 μg/ml of Glucose-6-phosphate. Microplates were incubated for 16-20 h at 35° C. in ambient air. The MIC of the compounds was defined as the lowest concentration of said compounds that prevented bacterial growth as read by visual inspection. The MIC of ATB at each compound concentration was defined as the lowest concentration of ATB that prevented bacterial growth as read by visual inspection.

[2] = system: ABA 107292
Experimental: as §1

[3] = system: ABA UFR158
Experimental: as §1

[4] = system: ABA UFR156
Experimental: as §1

[5] = system: ABA UFR157
Experimental: as §1

[6] = system: ABA UFR160
Experimental: as §1

[7] = system: ABA UFR159
Experimental: as §1

MIC ATB alone ([1]; antibiotic alone): 128 µg/mL | MIC ATB combined with Example 1 @8 μg/ml ([1]; with Example 1 @8 μg/ml): 32 µg/mL | MIC ATB combined with Example 3 @8 μg/ml ([1]; with Example 3 @8 μg/ml): 16 µg/mL | MIC ATB combined with Example 6 @8 μg/ml ([1]; with Example 6 @8 μg/ml): 16 µg/mL | MIC ATB combined with Example 9 @4 μg/ml ([1]; with Example 9 @4 μg/ml): 8 µg/mL | MIC ATB combined with Example 10 @8 μg/ml ([1]; with Example 10 @8 μg/ml): 16 µg/mL | MIC ATB combined with Example 11 @8 μg/ml ([1]; with Example 11 @8 μg/ml): 8 µg/mL | MIC ATB combined with Example 12 @8 μg/ml ([1]; with Example 12 @8 μg/ml): 8 µg/mL | MIC ATB combined with Example 15 @4 μg/ml ([1]; with Example 15 @4 μg/ml): 16 µg/mL | MIC ATB alone ([2]; antibiotic alone): 64 µg/mL | MIC ATB combined with Example 1 @8 μg/ml ([2]; with Example 1 @8 μg/ml): 4 µg/mL | MIC ATB combined with Example 3 @8 μg/ml ([2]; with Example 3 @8 μg/ml): 2 µg/mL | MIC ATB combined with Example 6 @8 μg/ml ([2]; with Example 6 @8 μg/ml): 8 µg/mL | MIC ATB combined with Example 9 @4 μg/ml ([2]; with Example 9 @4 μg/ml): 8 µg/mL | MIC ATB combined with Example 10 @8 μg/ml ([2]; with Example 10 @8 μg/ml): 4 µg/mL | MIC ATB combined with Example 11 @8 μg/ml ([2]; with Example 11 @8 μg/ml): 32 µg/mL | MIC ATB combined with Example 12 @8 μg/ml ([2]; with Example 12 @8 μg/ml): 2 µg/mL | MIC ATB combined with Example 15 @4 μg/ml ([2]; with Example 15 @4 μg/ml): 4 µg/mL | MIC ATB alone ([3]; antibiotic alone): 64 µg/mL | MIC ATB combined with Example 1 @8 μg/ml ([3]; with Example 1 @8 μg/ml): 16 µg/mL | MIC ATB combined with Example 3 @8 μg/ml ([3]; with Example 3 @8 μg/ml): 16 µg/mL | MIC ATB combined with Example 6 @8 μg/ml ([3]; with Example 6 @8 μg/ml): <0.25 µg/mL | MIC ATB combined with Example 9 @4 μg/ml ([3]; with Example 9 @4 μg/ml): 16 µg/mL | MIC ATB combined with Example 10 @8 μg/ml ([3]; with Example 10 @8 μg/ml): 16 µg/mL | MIC ATB combined with Example 11 @8 μg/ml ([3]; with Example 11 @8 μg/ml): 16 µg/mL | MIC ATB combined with Example 12 @8 μg/ml ([3]; with Example 12 @8 μg/ml): 16 µg/mL | MIC ATB combined with Example 15 @4 μg/ml ([3]; with Example 15 @4 μg/ml): 32 µg/mL | MIC ATB alone ([4]; antibiotic alone): 64 µg/mL | MIC ATB combined with Example 1 @8 μg/ml ([4]; with Example 1 @8 μg/ml): 16 µg/mL | MIC ATB combined with Example 3 @8 μg/ml ([4]; with Example 3 @8 μg/ml): 2 µg/mL | MIC ATB combined with Example 6 @8 μg/ml ([4]; with Example 6 @8 μg/ml): 4 µg/mL | MIC ATB combined with Example 9 @4 μg/ml ([4]; with Example 9 @4 μg/ml): 16 µg/mL | MIC ATB combined with Example 10 @8 μg/ml ([4]; with Example 10 @8 μg/ml): 1 µg/mL | MIC ATB combined with Example 11 @8 μg/ml ([4]; with Example 11 @8 μg/ml): 8 µg/mL | MIC ATB combined with Example 12 @8 μg/ml ([4]; with Example 12 @8 μg/ml): 4 µg/mL | MIC ATB combined with Example 15 @4 μg/ml ([4]; with Example 15 @4 μg/ml): 8 µg/mL | MIC ATB alone ([5]; antibiotic alone): 64 µg/mL | MIC ATB combined with Example 1 @8 μg/ml ([5]; with Example 1 @8 μg/ml): 2 µg/mL | MIC ATB combined with Example 3 @8 μg/ml ([5]; with Example 3 @8 μg/ml): 0.5 µg/mL | MIC ATB combined with Example 6 @8 μg/ml ([5]; with Example 6 @8 μg/ml): <0.25 µg/mL | MIC ATB combined with Example 9 @4 μg/ml ([5]; with Example 9 @4 μg/ml): 1 µg/mL | MIC ATB combined with Example 10 @8 μg/ml ([5]; with Example 10 @8 μg/ml): 1 µg/mL | MIC ATB combined with Example 11 @8 μg/ml ([5]; with Example 11 @8 μg/ml): 0.5 µg/mL | MIC ATB combined with Example 12 @8 μg/ml ([5]; with Example 12 @8 μg/ml): 0.5 µg/mL | MIC ATB combined with Example 15 @4 μg/ml ([5]; with Example 15 @4 μg/ml): 1 µg/mL | MIC ATB alone ([6]; antibiotic alone): >128 µg/mL | MIC ATB combined with Example 1 @8 μg/ml ([6]; with Example 1 @8 μg/ml): 64 µg/mL | MIC ATB combined with Example 3 @8 μg/ml ([6]; with Example 3 @8 μg/ml): 64 µg/mL | MIC ATB combined with Example 6 @8 μg/ml ([6]; with Example 6 @8 μg/ml): <0.25 µg/mL | MIC ATB combined with Example 9 @4 μg/ml ([6]; with Example 9 @4 μg/ml): 64 µg/mL | MIC ATB combined with Example 10 @8 μg/ml ([6]; with Example 10 @8 μg/ml): 64 µg/mL | MIC ATB combined with Example 11 @8 μg/ml ([6]; with Example 11 @8 μg/ml): 64 µg/mL | MIC ATB combined with Example 12 @8 μg/ml ([6]; with Example 12 @8 μg/ml): 64 µg/mL | MIC ATB combined with Example 15 @4 μg/ml ([6]; with Example 15 @4 μg/ml): 64 µg/mL | MIC ATB alone ([7]; antibiotic alone): 256 µg/mL | MIC ATB combined with Example 1 @8 μg/ml ([7]; with Example 1 @8 μg/ml): 128 µg/mL | MIC ATB combined with Example 3 @8 μg/ml ([7]; with Example 3 @8 μg/ml): 128 µg/mL | MIC ATB combined with Example 6 @8 μg/ml ([7]; with Example 6 @8 μg/ml): 128 µg/mL
Compound: CC1(C)[C@H](C(=O)O)N2C(=O)C[C@H]2S1(=O)=O [SUL]
